Experimental data reported in the supplement of paper PMC10307832.

Columns and labels:
Assay in all cases: relative viability (nuclei count vs DMSO), 5 days (fraction); higher = more cells survive
[1] = compound: CC[C@H](C)N1C=C(C2=C(C=C(C=C21)C3=CN=C(C=C3)N4CCNCC4)C(=O)NCC5=C(C=C(NC5=O)C)C)C [GSK126] + CC(=O)c1c(C)c2cnc(Nc3ccc(N4CCNCC4)cn3)nc2n(C2CCCC2)c1=O [Palbociclib] (partner 0.5 µM)
In short: (§1)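 Dosing by pin tool came one day after lung cancer cell lines were seeded in 1536-well plates, using either one drug or a fixed anchor-drug dose plus five library-drug doses (not always all listed) in √10 steps. After 5 days, nuclei were counted on 4× images. Relative viability is treated-well nuclei count divided by vehicle-well nuclei count, and values are medians of duplicate plates.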

[2] = compound: NS(=O)(=O)OC[C@@H]1C[C@@H](n2ccc3c(N[C@H]4CCc5ccccc54)ncnc32)C[C@@H]1O [MLN4924] + NC(=O)Nc1cc(-c2cccc(F)c2)sc1C(=O)N[C@H]1CCCNC1 [AZD7762] (partner 0.2 µM)
In short: as §1

[3] = compound: C1CC(C1)(C(=O)O)C(=O)O.[NH2-].[NH2-].[Pt+2] [Carboplatin] + Cc1nc(Nc2ncc(C(=O)Nc3c(C)cccc3Cl)s2)cc(N2CCN(CCO)CC2)n1 [Dasatinib] (partner 0.075 µM)
In short: as §1

[4] = compound: CC[C@H](C)N1C=C(C2=C(C=C(C=C21)C3=CN=C(C=C3)N4CCNCC4)C(=O)NCC5=C(C=C(NC5=O)C)C)C [GSK126] + CC1(C)CCC(c2ccc(Cl)cc2)=C(CN2CCN(c3ccc(C(=O)NS(=O)(=O)c4ccc(N[C@H](CCN5CCOCC5)CSc5ccccc5)c(S(=O)(=O)C(F)(F)F)c4)cc3)CC2)C1 [Navitoclax] (partner 0.5 µM)
In short: as §1

Cell Line	relative viability ([1]; first compound 0.08 µM)	relative viability ([1]; first compound 0.253 µM)	relative viability ([1]; first compound 0.8 µM)	relative viability ([1]; first compound 2.53 µM)	relative viability ([1]; first compound 8 µM)	relative viability ([2]; first compound 0.04 µM)	relative viability ([2]; first compound 0.1265 µM)	relative viability ([2]; first compound 0.4 µM)	relative viability ([2]; first compound 1.265 µM)	relative viability ([2]; first compound 4 µM)	relative viability ([3]; first compound 0.08 µM)	relative viability ([3]; first compound 0.253 µM)	relative viability ([3]; first compound 0.8 µM)	relative viability ([3]; first compound 2.53 µM)	relative viability ([3]; first compound 8 µM)	relative viability ([4]; first compound 0.08 µM)	relative viability ([4]; first compound 0.253 µM)	relative viability ([4]; first compound 0.8 µM)	relative viability ([4]; first compound 2.53 µM)	relative viability ([4]; first compound 8 µM)
LCLC-103H	0.452	0.546	0.466	0.441	0.5	0.831	0.833	0.7	0.239	0.247	0.481	0.55	0.524	0.482	0.445					
NCI-H358	0.13	0.131	0.12	0.146	0.136	0.518	0.472	0.369	0.144	0.215	0.162	0.171	0.163	0.178	0.18					
NCI-H520	0.21	0.233	0.221	0.209	0.268						0.216	0.239	0.185	0.263	0.193	1.24	1.02	1.03	1.14	1.34
NCI-H522	1.09	0.772	0.991	1.06	1.07	0.919	0.69	0.588	0.353	0.383	0.751	0.88	0.859	0.911	0.886					
NCI-H596						1.04	1.22	1.06	1.15	1.19	0.725	0.72	0.697	0.525	0.539	0.92	0.85	0.988	1.1	0.961
NCI-H650	0.349	0.315	0.331	0.322	0.352	1.1	0.578	0.371	0.231	0.148	0.472	0.47	0.399	0.423	0.371					
NCI-H661	0.43	0.419	0.414	0.43	0.431						1.06	0.923	0.844	0.82	0.746					
NCI-H1299																1.05	1.07	1.01	1.03	1.02
NCI-H1563											0.496	0.464	0.439	0.399	0.445					
NCI-H1623											0.583	0.553	0.57	0.506	0.469					
NCI-H1648	0.291	0.357	0.275	0.288	0.293	0.777	0.727	0.526	0.33	0.223										
NCI-H1650	0.393	0.359	0.37	0.377	0.32						0.31	0.357	0.321	0.273	0.299	1.33	1.19	1.1	1.12	1.06
NCI-H1703						0.135	0.126	0.111	0.11	0.123						1.49	0.942	1.02	0.898	0.748
NCI-H2009	0.183	0.176	0.181	0.257	0.322						0.321	0.286	0.29	0.291	0.249	1.23	1.14	1.19	1.1	1.16
NCI-H2023	0.505	0.442	0.349	0.442	0.399						0.584	0.635	0.471	0.29	0.149	1.04	0.984	1.04	1.09	0.995
NCI-H2228	0.985	0.519	0.713	0.674	0.967						0.667	0.482	0.425	0.444	0.326	0.55	1.01	1.1	0.863	0.837
NCI-H2342	0.566	0.575	0.508	0.572	0.522	0.412	0.568	0.551	0.523	0.452	0.328	0.344	0.311	0.28	0.294					
SK-LU-1	0.402	0.364	0.412	0.389	0.414						0.198	0.205	0.166	0.179	0.165	0.857	0.819	0.911	0.915	0.855
SK-MES-1	0.384	0.324	0.337	0.329	0.35						0.574	0.354	0.344	0.379	0.363	1.4	1.27	1.1	1.33	1.16
SW 900	0.659	0.514	0.518	0.61	0.585		0.806	0.467	0.331	0.259	0.837	0.616	0.442	0.409	0.467					
SW 1573	0.496	0.472	0.435	0.361	0.403						0.58	0.495	0.474	0.507	0.329	0.894	0.955	1.2	1.06	1.07
